Values of other authors, collected in US8378072B2, “Methods for designing and synthesizing directed sequence polymer compositions via the directed expansion of epitope permeability” (Declion Pharmaceuticals, Inc., priority 2006, dated 2013).

Assays:
[1] = limited human trials; Kim et al. Clinical Immunology 2002
[2] = Raz et al., Lancet 2001
[3] = compared with COP-1
[4] = YFAK input ratio of 1:1:1:1 compared to input ratio of 1:1:10:6; Rasmussen et al.

AKPVVHLFANIVTPRTP [altered peptide ligand (APL) made from MBP83-99, placed into limited human trials]
clinical efficacy by evaluation using MRI [1]: clinically ineffective

VLGGGVALLRVIPALDSLTPANED [p277]
activity in the context of Type I diabetes [2]: apparent activity

YFAK: random sequence polymer consisting of the amino acids Y, F, A, and K
efficacy in EAE [3]: better efficacy | eliciting a recall response [4]: not effective
